Source: patent US12492373B2, “Production method for nerve tissue” (Racthera Co., Ltd., priority 2014, dated 2025)

Experiments:
[1] = tested on: human iPS cells (1231A3 strain); assay: Immunostaining of aggregate sections for neural tissue markers Nestin, TuJ1, PSA-NCAM; type: cell-based
From the text: Furthermore, cell aggregates on day 23 after the start of suspension culturing, which were produced from the above iPS cells that underwent a preconditioning treatment as a starting material (conditions of FIG. 5B) were fixed with 4% para-formaldehyde to prepare frozen sections. […] Furthermore, it could be confirmed from the analysis of serial sections, that the regions that could be determined to be neural tissue by morphology observation in the bright field under an inverted microscope were Nestin-positive, TuJ1-positive, and PSA-NCAM-positive (FIG. 5C-E).
Furthermore, the above cell aggregates on day 23 after the start of suspension culturing, which were produced from the above iPS cells that underwent a preconditioning treatment with TGFβR inhibitor (SB431542) or BMPR inhibitor (LDN193189) as a starting material were fixed with 4% para-formaldehyde to prepare frozen sections. […] Furthermore, it could be confirmed from the analysis of serial sections, that the regions that could be identified to be neural tissue by morphology observation in the bright field images were Nestin-positive, TuJ1-positive, and PSA-NCAM-positive (FIG. 8A-F).
Cell aggregates were prepared according to the method described in Example 10 by using, as a starting material, human iPS cells using Essential 8 medium as a feeder-free culturing, TGFβR inhibiting substance (SB431542) in step 1, and a Shh signal transduction pathway activating substance in step 2. The cell aggregates on day 18 after the start of suspension culturing were fixed with 4% para-formaldehyde to prepare frozen section. […] Furthermore, it could be confirmed from the analysis of serial sections, that the regions that could be identified to be neural tissue by morphology observation in the bright field images were Nestin-positive, TuJ1-positive, and PSA-NCAM-positive (FIG. 11).

[2] = tested on: human iPS cells (1231A3 strain); assay: Bright field observation of feeder-free cultured human iPS cells after preconditioning; type: cell-based
Description: As a specific example of preconditioning in step 1 of the production method of the present invention, the following operation was performed. First, the subconfluent human iPS cells (1231A3 strain) were washed with PBS, and dispersed into single cells by using TrypLE Select (manufactured by Life Technologies). Thereafter, the above human iPS cells dispersed into single cells were seeded in a plastic culture dish (manufactured by Iwaki) coated with Laminin 511-E8, […] (ROCK inhibiting substance, 10 μM). When a 6-well plate (manufactured by Iwaki, culture area 9.4 cm^2) was used as the above plastic culture dish, the number of plated cells for the above human iPS cells dispersed into single cells was set to 6×10^3. When a 60 mm dish (manufactured by Iwaki, culture area 21 cm^2) was used as the above plastic culture dish, the number of plated cells for the above human iPS cells dispersed into single cells was set to 13×10^3. One day after seeding, the medium was changed to StemFit medium free of Y27632. Thereafter, once in 1-2 days, the medium was changed to StemFit medium free of Y27632. Thereafter, the cells were cultured until 5 days after seeding, namely, one day before subconfluence (50% of culture area is covered with cells). Even when cultured for 6 days after seeding, similar results are shown. The human iPS cells one day before subconfluence in the above feeder-free culturing were subjected to feeder-free culturing in the presence of SB431542 (TGFβR inhibitor (TGFβRi), 5 μM) (step 1: preconditioning treatment, FIG. 1 “Precondition TGFβRi 24 hr”), or in the absence thereof (step 1: without precondition treatment, FIG. 1 “Control”) for 1 day. The bright field observation of cultured cells was performed under an inverted microscope (KEYENCE). […] As a preconditioning operation, subconfluent human iPS cells (1231A3 strain) were first washed with PBS, and dispersed into single cells by using TrypLE Select (manufactured by Life Technologies). […]

[3] = Essential 8 medium, SB431542 in step 1, SAG in step 2, day 18
[4] = SB431542 5 μM or LDN193189 100 nM in step 1, SAG 300 nM in step 2, StemFit, day 23
[5] = 1 day in Essential 8 medium, SB431542 5 μM, LDN193189 100 nM, or both
[6] = LDN193189 100 nM in step 1, no SAG in step 2, StemFit, day 23

Row | Structure (SMILES) | proportion of Nestin-positive cells in the total cells [1, 3] | proportion of PSA-NCAM-positive cells [1, 3] | proportion of TuJ1-positive cells in the total cells [1, 3] | proportion of Nestin-positive cells in the total cells [1, 4] | proportion of PSA-NCAM-positive cells [1, 4] | proportion of TuJ1-positive cells in the total cells [1, 4] | morphology of human iPS cell [2, 5] | morphology of human iPS cell ([2]; SB431542 5 μM for 1 day during feeder-free culturing in StemFit medium) | proportion of Nestin-positive cells in the total cells [1, 6] | proportion of PSA-NCAM-positive cells in the total cells [1, 6] | proportion of TuJ1-positive cells in the total cells [1, 6]
1 | NC(=O)c1ccc(-c2nc(-c3ccc4c(c3)OCO4)c(-c3ccccn3)[nH]2)cc1 [SB431542, 4-(5-benzol[1,3]dioxol-5-yl-4-pyridin-2-yl-1H-imidazol-2-yl)-benzamide] | about 30% | about 70% | about 70% | about 20% | about 70% | about 70% | not largely influenced | not largely influenced |  |  | 
2 | c1ccc2c(-c3cnn4cc(-c5ccc(N6CCNCC6)cc5)cnc34)ccnc2c1 [LDN193189, 4-[6-(4-piperazin-1-ylphenyl)pyrazolo[1,5-a]pyrimidin-3-yl]quinoline] |  |  |  | about 20% | about 70% | about 70% | not largely influenced |  | about 20% | about 70% | about 70%
